One may read the Ki as the equilibrium dissociation constant of an inhibitor or competing ligand from its target. Low readings indicate higher affinity, high ones lower affinity. Broadly, the IC50 is the point on the concentration scale where inhibition reaches its midpoint.

Among the data in US5932551A, “Substituted N-carboxyalkylpeptidyl derivatives as antidegenerative active agents” (Merck & Co., Inc., priority 1997, dated 1999) are Ki and IC50 values, retold here.

Holding throughout (type): biochemical
Assay [1] has as its target T1, 72 kD Galatinase (gelatinase) (Homo sapiens, UniProt P08253).
T1 sequence (P08253 110-660): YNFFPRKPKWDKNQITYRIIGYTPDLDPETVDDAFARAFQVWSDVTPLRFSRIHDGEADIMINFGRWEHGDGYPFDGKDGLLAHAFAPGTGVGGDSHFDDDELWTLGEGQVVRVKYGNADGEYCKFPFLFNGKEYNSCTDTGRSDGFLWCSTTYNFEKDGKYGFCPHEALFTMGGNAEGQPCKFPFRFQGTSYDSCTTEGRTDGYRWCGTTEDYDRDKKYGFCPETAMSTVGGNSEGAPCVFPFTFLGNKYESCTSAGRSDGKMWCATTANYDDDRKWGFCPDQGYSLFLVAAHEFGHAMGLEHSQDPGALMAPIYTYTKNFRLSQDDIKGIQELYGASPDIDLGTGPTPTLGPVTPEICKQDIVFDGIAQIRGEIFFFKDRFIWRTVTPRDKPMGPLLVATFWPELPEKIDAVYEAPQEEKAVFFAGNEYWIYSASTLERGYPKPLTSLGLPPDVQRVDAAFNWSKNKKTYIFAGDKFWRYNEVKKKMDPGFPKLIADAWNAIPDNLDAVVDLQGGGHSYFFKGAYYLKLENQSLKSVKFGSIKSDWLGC
Description: Inhibition of gelatinase-mediated cleavage of fluorogenic substrate Dnp-Pro-Leu-Gly-Leu-Trp-Ala-D-ArgNH2. As to conditions: pH = 7.5. The source says: (§1) The peptide portion is herein designated SEQ ID No: 2:.

The target of the next assay is T2, collagenase (Homo sapiens, UniProt P03956).
T2 sequence (P03956 100-469): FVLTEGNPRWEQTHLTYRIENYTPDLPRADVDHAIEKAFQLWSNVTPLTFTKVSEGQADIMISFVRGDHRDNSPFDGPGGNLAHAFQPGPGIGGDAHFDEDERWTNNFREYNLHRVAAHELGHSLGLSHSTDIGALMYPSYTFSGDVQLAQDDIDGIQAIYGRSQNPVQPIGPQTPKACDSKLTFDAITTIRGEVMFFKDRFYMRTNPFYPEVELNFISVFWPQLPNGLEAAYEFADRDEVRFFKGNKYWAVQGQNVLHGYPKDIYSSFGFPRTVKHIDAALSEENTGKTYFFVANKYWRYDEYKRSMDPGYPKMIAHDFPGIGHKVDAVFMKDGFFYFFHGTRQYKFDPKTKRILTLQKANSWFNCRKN
Description: Inhibition of collagenase cleavage of thioester peptide Ac-Pro-Leu-Gly-S-Leu-Leu-Gly-OC2H5. As to conditions: read-out: Inhibition of Collagenase pH = 6.5 (IC50).
Text: as §1

For another assay, the target named is stromelysin (Homo sapiens, UniProt P08254). The experiment in a line: Inhibition of stromelysin-mediated hydrolysis of substance P (HPLC-based assay). The note with it: pH = 7.5.

Each structure is given as a SMILES string.

stromelysin, sequence (P08254 100-477): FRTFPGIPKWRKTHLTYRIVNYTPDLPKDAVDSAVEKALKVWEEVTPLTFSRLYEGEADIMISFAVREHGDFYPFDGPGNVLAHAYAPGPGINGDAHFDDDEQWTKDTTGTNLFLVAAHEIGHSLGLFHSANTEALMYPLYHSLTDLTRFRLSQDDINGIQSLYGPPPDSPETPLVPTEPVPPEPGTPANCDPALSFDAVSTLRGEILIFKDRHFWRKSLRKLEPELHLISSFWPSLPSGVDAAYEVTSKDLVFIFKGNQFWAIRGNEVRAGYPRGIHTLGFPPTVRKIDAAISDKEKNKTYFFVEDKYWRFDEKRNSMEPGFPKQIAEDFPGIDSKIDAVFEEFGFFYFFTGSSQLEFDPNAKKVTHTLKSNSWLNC

On to `CC(C)C[C@H](NC(=O)[C@H](CCc1ccccc1)N[C@H](C)C(=O)O)C(=O)Nc1ccccc1` [5a, N-[1(R)-Carboxy-ethyl]-α-(S)-(2-phenyl-ethyl)glycine-(L)-leucine, N-phenylamide], for which the Ki in assay [1] was determined as 930 nM. On collagenase, the IC50 was 60 nM.
As for `CC(C)C[C@H](NC(=O)[C@H](CCc1ccccc1)N[C@H](CCCCN1C(=O)c2ccccc2C1=O)C(=O)O)C(=O)Nc1ccccc1` [5d], the concentration for half-maximal inhibition (IC50) on stromelysin stood at 200 nM; on collagenase it was 250 nM. In assay [1], the affinity corresponds to a Ki of 86 nM.
